{"source": "paper PMC3968008", "about": "(PLoS ONE, 2014)", "key": {"[1]": {"details": "peptide 500 μg/ml, 37°C, 3 or 10 minutes, acetonitrile/0.1% trifluoroacetate precipitation, HPLC, N = 2 (Fig. 1E)", "procedure": "In vitro stability studies were performed by incubating the peptide with rat or human serum. Human sera (Pool of donors, 5 men and 5 women) were commercially purchased from KAC (Kyoto, Japan), which has been permitted only for experiment. We don't use the human biological specimens without the documented informed consent. Rat sera were collected from rats. The peptide (500 μg/ml) was added to serum (300 μL) and incubated at 37°C. A part of samples (90 μL) were taken, and the proteins were precipitated with acetonitrile containing 0.1% trifluoroacetate (200 μL). The precipitate was separated by centrifugation. The supernatants were analyzed by high-performance liquid chromatography (HPLC)."}, "E. coli (ATCC25922)": {"test_system": "E. coli (ATCC25922)", "experiment": "microbe, parasite or virus in culture", "assay_type": "cell-based, Escherichia coli", "details": "for MIC E. coli (ATCC25922): ATCC25922, 48 h; for MIC: Escherichia coli, ATCC25922, broth microdilution, 37°C, 24 or 48 hours, individual data from two independent experiments"}, "NHDFs": {"test_system": "NHDFs", "experiment": "NHDFs proliferation, WST-1 assay", "assay_type": "cell-based, human", "details": "preincubation with Akt inhibitor IV 1 μM (1 hour) or rapamycin 1 nM (2 hours), then SR-0379", "procedure": "HUVECs, NHDFs and NHEKs were purchased from Kurabo (Osaka, Japan). The endothelial cells were maintained in HuMedia EB2 and the fibroblasts were maintained in Medium 106S. Both media were supplemented with 1% fetal bovine serum (FBS) as described previously. The epidermal keratinocytes were maintained in HuMedia KB2. Cells were incubated at 37°C in a humidified atmosphere of 95% air/5% CO2 with exchange of medium every 2 days. HUVECs were cultured in 96-well plates at a density of 10,000 cells/well and incubated for 48 hours at 37°C with AG30/5C or FGF2 (recombinant human FGF basic, R&D systems, Inc., Minneapolis, MN). The proliferation of HUVECs, NHDFs and NHEKs was analyzed using a WST-1 assay (Dojindo, Kumamoto, Japan). Tubule formation assay has recently been developed in which endothelial cells are co-cultured with fibroblasts. […] The tube-like structures were measured in terms of total tube length with the software (Angiogenesis Image Analyzer, Kurabo, Osaka Japan). Cell migration was evaluated using an Oris cell migration assay kit (Platypus Technologies, LLC., Madison, WI) according to the manufacturer's instructions. […] The number of cells that migrated into the detection zone was measured using a plate reader. […] At each time point, the lattices were digitally photographed from a fixed distance, and their areas were calculated using image analysis software. […]"}, "S. aureus (ATCC29213)": {"test_system": "S. aureus (ATCC29213)", "experiment": "microbe, parasite or virus in culture", "assay_type": "cell-based, Staphylococcus aureus", "details": "broth microdilution, 37°C, 24 or 48 hours, individual data from two independent experiments; for MIC: Staphylococcus aureus, ATCC29213"}, "Trichophyton rubrum": {"test_system": "Trichophyton rubrum", "experiment": "microbe, parasite or virus in culture", "assay_type": "cell-based", "details": "Trichophyton rubrum; fungus; broth microdilution; individual data from two independent experiments"}, "[2]": {"test_system": "Trichophyton mentagrophytes", "experiment": "microbe, parasite or virus in culture", "assay_type": "cell-based", "details": "Trichophyton mentagrophytes; fungus; broth microdilution; individual data from two independent experiments"}, "Candida krusei": {"test_system": "Candida krusei", "experiment": "microbe, parasite or virus in culture", "assay_type": "cell-based", "details": "Pichia kudriavzevii; fungus; broth microdilution; individual data from two independent experiments"}, "Alternaria alternata": {"test_system": "Alternaria alternata", "experiment": "microbe, parasite or virus in culture", "assay_type": "cell-based", "details": "Alternaria alternata; fungus; broth microdilution; individual data from two independent experiments"}, "bacteria": {"test_system": "bacteria", "experiment": "Antimicrobial spectrum, bacteria", "assay_type": "cell-based"}, "Fusarium solani": {"test_system": "Fusarium solani", "experiment": "microbe, parasite or virus in culture", "assay_type": "cell-based", "details": "Fusarium solani; fungus; broth microdilution; individual data from two independent experiments"}, "Penicillium glabrum": {"test_system": "Penicillium glabrum", "experiment": "MIC, broth microdilution", "assay_type": "cell-based", "details": "fungus, individual data from two independent experiments"}, "P2X7": {"biological_target": "T1, P2X7 (Homo sapiens, UniProt Q99572)", "T1 construct": "we also examined the contribution of P2X7 receptors to the effect of SR-0379; endogenous in cells; probably NHDFs (human dermal fibroblasts, Kurabo)", "T1 sequence (Q99572 whole entry)": "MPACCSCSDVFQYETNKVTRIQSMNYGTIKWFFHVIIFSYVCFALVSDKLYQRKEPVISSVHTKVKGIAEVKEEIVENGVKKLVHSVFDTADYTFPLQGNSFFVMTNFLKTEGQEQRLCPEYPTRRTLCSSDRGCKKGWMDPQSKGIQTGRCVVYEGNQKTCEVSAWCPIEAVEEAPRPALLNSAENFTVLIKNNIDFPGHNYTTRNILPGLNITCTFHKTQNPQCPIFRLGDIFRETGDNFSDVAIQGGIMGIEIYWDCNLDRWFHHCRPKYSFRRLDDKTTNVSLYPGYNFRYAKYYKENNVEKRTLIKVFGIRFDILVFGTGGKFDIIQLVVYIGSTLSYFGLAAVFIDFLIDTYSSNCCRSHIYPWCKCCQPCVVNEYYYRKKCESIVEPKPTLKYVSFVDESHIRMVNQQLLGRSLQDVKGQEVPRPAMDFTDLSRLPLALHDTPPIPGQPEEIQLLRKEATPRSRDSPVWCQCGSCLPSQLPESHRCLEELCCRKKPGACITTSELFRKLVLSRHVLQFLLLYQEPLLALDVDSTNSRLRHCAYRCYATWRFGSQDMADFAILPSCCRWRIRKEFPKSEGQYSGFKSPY", "experiment": "Contribution of P2X7 receptors to the effect of SR-0379", "assay_type": "cell-based", "details": "data not shown"}, "[3]": {"test_system": "P. aeruginosa (ATCC27853)", "experiment": "MIC, broth microdilution", "assay_type": "cell-based, Pseudomonas aeruginosa", "set-up": "MIC P. aeruginosa (ATCC27853): unit not given beside the values", "details": "24 or 48 hours, individual data from two independent experiments"}, "[4]": {"details": "pooled rat serum, 37°C, 10 and 60 minutes, MALDI-TOF MS; major metabolites 20 aa, 18 aa, 17 aa and 12 aa"}, "pooled rat serum": {"experiment": "pooled rat serum", "details": "37°C, up to 60 minutes"}, "[5]": {"test_system": "interleukin-8 (IL-8) mRNA in NHDFs", "experiment": "IL-8 mRNA expression, real-time RT-PCR", "assay_type": "cell-based, human", "details": "Wortmannin 100 nM, SR-0379 10 μg/ml", "procedure": "Expression of the human IL-8 mRNA was measured using real-time reverse transcription polymerase chain reaction (RT-PCR). Total RNA was extracted from the tissue samples using ISOGEN reagent (NIPPON GENE, Toyama, Japan). Complementary DNA (cDNA) was synthesized using the Thermo Script RT-PCR System (Invitrogen, Carlsbad, CA). Relative gene-copy numbers for IL-8 mRNA and glyceraldehyde-3-phosphate dehydrogenase (GAPDH) were determined by real-time RT-PCR using TaqMan Gene Expression Assays (IL-8: Hs00174103_m1; GAPDH: 4352934). Absolute gene-copy numbers were normalized to GAPDH using a standard curve."}, "Salmonella Enteritidis": {"test_system": "Salmonella Enteritidis", "experiment": "microbe, parasite or virus in culture", "assay_type": "cell-based", "details": "Salmonella enterica, ENTERITIDIS; aerobe; broth microdilution; individual data from two independent experiments"}, "Bacteroides fragilis": {"test_system": "Bacteroides fragilis", "experiment": "microbe, parasite or virus in culture", "assay_type": "cell-based", "details": "Bacteroides fragilis; anaerobe; broth microdilution; individual data from two independent experiments"}, "fungi": {"test_system": "fungi", "experiment": "Antimicrobial spectrum, fungi", "assay_type": "cell-based"}, "Salmonella Typhimurium": {"test_system": "Salmonella Typhimurium", "experiment": "microbe, parasite or virus in culture", "assay_type": "cell-based", "details": "Salmonella enterica, TYPHIMURIUM; aerobe; broth microdilution; individual data from two independent experiments"}, "Micrococcus luteus": {"test_system": "Micrococcus luteus", "experiment": "microbe, parasite or virus in culture", "assay_type": "cell-based", "details": "Micrococcus luteus; aerobe; broth microdilution; individual data from two independent experiments"}, "Acinetobacter baumannii": {"test_system": "Acinetobacter baumannii", "assay_type": "cell-based", "details": "aerobe; broth microdilution; individual data from two independent experiments"}, "Fusobacterium nucleatum": {"test_system": "Fusobacterium nucleatum", "experiment": "MIC, broth microdilution", "assay_type": "cell-based", "details": "anaerobe, individual data from two independent experiments"}, "Bacillus subtilis": {"test_system": "Bacillus subtilis", "experiment": "microbe, parasite or virus in culture", "assay_type": "cell-based", "details": "Bacillus subtilis; aerobe; broth microdilution; individual data from two independent experiments"}}, "note": "Entries after “also recorded” stand apart in the source; their conditions may differ. Ends that are not written are not given here.", "data": [{"compound": "MLKLIFLHRLKRMRKRLKRK [SR-0007]", "values": [{"measurement": "Stability in human serum", "setting": "[1]; human serum (pool of 5 men and 5 women) 300 μL", "result": "rapidly degraded"}, {"measurement": "Stability in rat serum", "setting": "[1]; rat serum 300 μL", "result": "rapidly degraded"}, {"measurement": "MIC E. coli (ATCC25922)", "setting": "E. coli (ATCC25922)", "result": 64, "unit": "µg/mL"}]}, {"compound": "CO[C@H]1C[C@@H]2CC[C@@H](C)[C@@](O)(O2)C(=O)C(=O)N2CCCC[C@H]2C(=O)O[C@H]([C@H](C)C[C@@H]2CC[C@@H](O)[C@H](OC)C2)CC(=O)[C@H](C)/C=C(\\C)[C@@H](O)[C@@H](OC)C(=O)[C@H](C)C[C@H](C)/C=C/C=C/C=C/1C", "note": "[Rapamycin]", "values": [{"measurement": "Effect on SR-0379-induced cell proliferation", "setting": "NHDFs", "result": "attenuated"}]}, {"compound": "Cc1onc(-c2ccccc2)c1C(=O)N[C@@H]1C(=O)N2[C@@H]1SC(C)(C)[C@@H]2C(=O)O", "note": "[Oxacillin]", "values": [{"measurement": "MIC", "setting": "S. aureus (ATCC29213)", "result": "0.12 to 0.5", "unit": "µg/mL"}]}, {"compound": "C[C@@H]1[C@H](O)[C@@H](C)/C=C/C=C/C=C/C=C/C=C/C=C/C=C/[C@H](O[C@@H]2O[C@H](C)[C@@H](O)[C@H](N)[C@@H]2O)C[C@@H]2O[C@](O)(C[C@@H](O)C[C@@H](O)[C@H](O)CC[C@@H](O)C[C@@H](O)CC(=O)O[C@H]1C)C[C@H](O)[C@H]2C(=O)O", "note": "[Amphotericin B, reference compound]", "values": [{"measurement": "MIC", "setting": "Trichophyton rubrum", "result": 0.125, "unit": "µg/mL"}, {"measurement": "MIC", "setting": "[2]", "result": 0.125, "unit": "µg/mL"}, {"measurement": "MIC", "setting": "Candida krusei", "result": 2, "unit": "µg/mL"}, {"measurement": "MIC", "setting": "Alternaria alternata", "result": 1, "unit": "µg/mL"}, {"measurement": "Inhibitory activity against bacteria", "setting": "bacteria", "result": "failed to exhibit an inhibitory activity"}, {"measurement": "MIC", "setting": "Fusarium solani", "result": 1, "unit": "µg/mL"}, {"measurement": "MIC", "setting": "Penicillium glabrum", "result": 0.125, "unit": "µg/mL"}]}, {"compound": "CCOc1ccc(Nc2ccc(/C(=C3C=C/C(=[N+](/CC)Cc4cccc(S(=O)(=O)[O-])c4)C=C/3C)c3ccc(N(CC)Cc4cccc(S(=O)(=O)O)c4)cc3C)cc2)cc1", "note": "[Brilliant Blue G]", "values": [{"measurement": "Inhibition of the effects of SR-0379 by P2X7 antagonist", "setting": "P2X7", "result": "failed to inhibit"}]}, {"compound": "CC[n+]1c(/C=C/N(C)c2ccccc2)n(-c2ccccc2)c2ccc(-c3nc4ccccc4s3)cc21.[I-]", "note": "[Akt inhibitor IV]", "values": [{"measurement": "Effect on SR-0379-induced cell proliferation", "setting": "NHDFs", "result": "attenuated"}]}, {"compound": "C[C@@H](O)[C@H]1C(=O)N2C(C(=O)O)=C(S[C@@H]3CN[C@H](C(=O)N(C)C)C3)[C@H](C)[C@H]12", "note": "[Meropenem, reference compound]", "values": [{"measurement": "MIC", "setting": "[3]; Pseudomonas aeruginosa, ATCC27853, 37°C", "result": "0.25 to 1", "unit": "µg/mL"}, {"measurement": "MIC", "setting": "E. coli (ATCC25922)", "result": "0.008 to 0.06", "unit": "µg/mL"}, {"measurement": "MIC", "setting": "S. aureus (ATCC29213)", "result": "0.03 to 0.12", "unit": "µg/mL"}]}, {"compound": "MLKLIFLHRLKRMRKRLKRKLRLWHRKRYK [AG30/5C]", "values": [{"measurement": "MIC P. aeruginosa (ATCC27853)", "setting": "[3]; 37°C", "result": "16/32"}, {"measurement": "Metabolic stability, cleavage in rat serum", "setting": "[4]", "result": "cleaved by endopeptidases and exopeptidase at multiple sites"}, {"measurement": "MIC E. coli (ATCC25922)", "setting": "E. coli (ATCC25922)", "result": 32, "unit": "µg/mL"}, {"measurement": "MIC S. aureus (ATCC29213)", "setting": "S. aureus (ATCC29213)", "result": "16/32"}]}, {"compound": "MLKLIFLHRLKRMRKRLKRKLRFWHRKRYK", "values": [{"measurement": "fragment found", "setting": "pooled rat serum", "result": "MLKLIFLHRL KRMRKRLKRK (SR-0007), major; also recorded: MLKLIFLHRL KRMRKRLK, major; also recorded: MLKLIFLHRL KRMRKRL, major; also recorded: LHRL KRMRKRLK, major"}]}, {"compound": "NC[C@H]1O[C@H](O[C@H]2[C@H](O)[C@@H](O[C@H]3O[C@H](CO)[C@@H](O)[C@H](N)[C@H]3O)[C@H](N)C[C@@H]2N)[C@H](N)C[C@@H]1O", "note": "[Tobramycin, reference compound]", "values": [{"measurement": "MIC", "setting": "E. coli (ATCC25922)", "result": "0.25 to 1", "unit": "µg/mL"}, {"measurement": "MIC", "setting": "S. aureus (ATCC29213)", "result": "0.12 to 1", "unit": "µg/mL"}]}, {"compound": "COC[C@H]1OC(=O)c2coc3c2[C@@]1(C)C1=C(C3=O)[C@@H]2CCC(=O)[C@@]2(C)C[C@H]1OC(C)=O", "note": "[Wortmannin]", "values": [{"measurement": "Effect of pretreatment on SR-0379-induced IL-8 mRNA expression", "setting": "[5]", "result": "attenuated"}]}, {"compound": "O=C(N[C@H](CO)[C@H](O)c1ccc([N+](=O)[O-])cc1)C(Cl)Cl", "note": "[Chloramphenicol, reference compound]", "values": [{"measurement": "MIC", "setting": "Salmonella Enteritidis", "result": 4, "unit": "µg/mL"}, {"measurement": "MIC", "setting": "Bacteroides fragilis", "result": 1, "unit": "µg/mL"}, {"measurement": "Inhibitory activity against fungi", "setting": "fungi", "result": "failed to exhibit an inhibitory activity"}, {"measurement": "MIC", "setting": "Salmonella Typhimurium", "result": 4, "unit": "µg/mL"}, {"measurement": "MIC", "setting": "Micrococcus luteus", "result": 1, "unit": "µg/mL"}, {"measurement": "MIC Acinetobacter baumannii", "setting": "Acinetobacter baumannii", "result": "16/32"}, {"measurement": "MIC", "setting": "Fusobacterium nucleatum", "result": 0.25, "unit": "µg/mL"}, {"measurement": "MIC", "setting": "Bacillus subtilis", "result": 4, "unit": "µg/mL"}]}]}
